One assay concerns the target T1, MET (Homo sapiens, UniProt P08581).
T1 construct: endogenous in cells
Nature of the assay: Kinobeads two-dose competition binding: MET. To be noted: target MET.

Another assay deals with T2, EGFR (Homo sapiens, UniProt P00533).
T2 construct: endogenous in cells
As to the kind of experiment: Kinobeads two-dose competition binding: EGFR. The settings on record: for CATDS: target EGFR.

Another assay addresses T3, ABL2 (Homo sapiens, UniProt P42684).
T3 construct: endogenous in cells
Nature of the assay: Kinobeads competition binding: ABL2. To be noted: target ABL2.

The target of the next assay is T4, AURKA (Homo sapiens, UniProt O14965).
T4 construct: endogenous in cells
T4 sequence (O14965 1-403): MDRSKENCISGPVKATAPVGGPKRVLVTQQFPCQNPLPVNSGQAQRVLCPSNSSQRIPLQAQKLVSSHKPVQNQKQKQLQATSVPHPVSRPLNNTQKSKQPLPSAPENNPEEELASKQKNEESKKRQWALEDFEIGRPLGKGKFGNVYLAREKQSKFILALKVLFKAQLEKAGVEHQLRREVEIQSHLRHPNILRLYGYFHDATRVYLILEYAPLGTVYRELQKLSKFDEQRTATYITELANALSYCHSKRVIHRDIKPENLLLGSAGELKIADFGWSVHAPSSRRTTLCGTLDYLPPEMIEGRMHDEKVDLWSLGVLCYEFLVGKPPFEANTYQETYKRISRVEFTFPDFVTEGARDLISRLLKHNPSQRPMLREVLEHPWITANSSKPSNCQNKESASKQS
As to the kind of experiment: Kinobeads competition binding: AURKA.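 Further: selectivity score: engagement of this protein divided by summed engagement of all targets.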 The settings on record: target AURKA. The source says: Supplement 41589_2023_1459_MOESM4_ESM.xlsx, sheet "CATDS matrix" | column: AURKA

The next assay has as its target T5, BCR (Homo sapiens, UniProt P00519+P11274).
T5 construct: endogenous in cells
Nature of the assay: Kinobeads competition binding: BCR. To be noted: target BCR. The source says: Supplement 41589_2023_1459_MOESM4_ESM.xlsx, sheet "CATDS matrix" | column: BCR

The next assay deals with COX5A. As to the kind of experiment: Kinobeads competition binding: COX5A.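 Further: share of total target engagement due to this protein at one drug concentration.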 More on the design: species or system human. The settings on record: target COX5A.
For the next assay, the target named is T6, EPHA2 (Homo sapiens, UniProt P29317).
T6 construct: endogenous in cells
T6 sequence (P29317 24-976): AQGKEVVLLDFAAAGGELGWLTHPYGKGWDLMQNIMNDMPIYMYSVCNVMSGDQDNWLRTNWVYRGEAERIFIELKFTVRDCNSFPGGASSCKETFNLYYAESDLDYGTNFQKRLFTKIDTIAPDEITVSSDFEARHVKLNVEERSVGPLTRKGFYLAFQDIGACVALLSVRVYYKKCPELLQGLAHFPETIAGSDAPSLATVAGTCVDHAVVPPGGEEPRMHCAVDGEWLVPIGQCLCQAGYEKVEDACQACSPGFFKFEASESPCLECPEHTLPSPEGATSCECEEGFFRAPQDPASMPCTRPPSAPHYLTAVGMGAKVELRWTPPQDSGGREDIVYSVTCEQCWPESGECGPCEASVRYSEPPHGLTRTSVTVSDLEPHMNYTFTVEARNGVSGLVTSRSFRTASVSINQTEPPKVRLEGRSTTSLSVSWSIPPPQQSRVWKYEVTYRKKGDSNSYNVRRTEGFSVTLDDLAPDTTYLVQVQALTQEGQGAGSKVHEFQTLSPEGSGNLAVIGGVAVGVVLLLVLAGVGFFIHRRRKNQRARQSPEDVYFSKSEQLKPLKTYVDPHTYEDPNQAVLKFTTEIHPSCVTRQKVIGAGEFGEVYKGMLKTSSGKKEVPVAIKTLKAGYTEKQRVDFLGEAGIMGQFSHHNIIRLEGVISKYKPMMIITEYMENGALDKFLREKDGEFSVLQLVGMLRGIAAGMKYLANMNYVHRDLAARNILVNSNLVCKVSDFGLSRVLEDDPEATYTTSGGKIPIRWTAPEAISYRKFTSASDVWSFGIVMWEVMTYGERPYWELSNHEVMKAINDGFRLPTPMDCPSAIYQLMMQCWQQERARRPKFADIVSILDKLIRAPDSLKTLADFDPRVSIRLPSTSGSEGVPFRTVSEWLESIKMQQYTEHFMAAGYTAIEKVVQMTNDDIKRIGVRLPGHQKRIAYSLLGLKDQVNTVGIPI
As to the kind of experiment: Kinobeads competition binding: EPHA2. To be noted: target EPHA2. The source says:
Supplement 41589_2023_1459_MOESM4_ESM.xlsx, sheet "CATDS matrix" | column: EPHA2

A further assay addresses T7, ERN2 (Homo sapiens, UniProt Q76MJ5).
T7 construct: endogenous in cells
As to the kind of experiment: Kinobeads competition binding: ERN2. To be noted: target ERN2.

The test system of another assay is FN3KRP. Nature of the assay: Kinobeads competition binding: FN3KRP.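 Further: share of total target engagement due to this protein at one drug concentration.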 More on the design: species or system human. The settings on record: target FN3KRP.
The next assay has as its system ILK. As to the kind of experiment: Kinobeads competition binding: ILK. More on the design: species or system human. To be noted: target ILK.
A further assay relates to MAP2K2. Nature of the assay: Kinobeads competition binding: MAP2K2. More on the design: species or system human. To be noted: target MAP2K2.
For another assay, the system named is MAP4K5. As to the kind of experiment: Kinobeads competition binding: MAP4K5. Also on record: species or system human. The settings on record: target MAP4K5.
For a further assay, the system named is MAPK7. Nature of the assay: Kinobeads competition binding: MAPK7. The settings on record: target MAPK7. More on the design: species or system human.
The next assay has as its system NEK9. Nature of the assay: Kinobeads competition binding: NEK9. To be noted: target NEK9. More on the design: species or system human.
The next assay concerns NNT. As to the kind of experiment: Kinobeads competition binding: NNT.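 Further: share of total target engagement due to this protein at one drug concentration.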 More on the design: species or system human. To be noted: target NNT.
For a further assay, the target named is T8, PAK4 (Homo sapiens, UniProt O96013).
T8 construct: a mixture of lysates from five cancer cell lines; endogenous in cells
Nature of the assay: Kinobeads competition binding: PAK4. To be noted: target PAK4. The source says:
Supplement 41589_2023_1459_MOESM4_ESM.xlsx, sheet "CATDS matrix" | column: PAK4

The next assay addresses T9, PDXK (Homo sapiens, UniProt O00764).
T9 construct: a mixture of lysates from five cancer cell lines; endogenous in cells
T9 sequence (O00764 1-312): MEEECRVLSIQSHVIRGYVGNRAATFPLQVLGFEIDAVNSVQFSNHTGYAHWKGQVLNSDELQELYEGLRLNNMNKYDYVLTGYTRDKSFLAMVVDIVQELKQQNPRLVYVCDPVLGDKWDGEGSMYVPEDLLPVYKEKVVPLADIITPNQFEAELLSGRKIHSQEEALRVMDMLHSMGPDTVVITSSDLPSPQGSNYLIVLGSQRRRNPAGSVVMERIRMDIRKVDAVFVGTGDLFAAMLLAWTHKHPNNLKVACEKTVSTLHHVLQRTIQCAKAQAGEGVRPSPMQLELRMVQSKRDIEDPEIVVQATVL
As to the kind of experiment: Kinobeads competition binding: PDXK.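 Further: share of total target engagement due to this protein at one drug concentration.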 To be noted: target PDXK. The source says: Supplement 41589_2023_1459_MOESM4_ESM.xlsx, sheet "CATDS matrix" | column: PDXK

In another assay the target is T10, PIM3 (Homo sapiens, UniProt Q86V86).
T10 construct: a mixture of lysates from five cancer cell lines; endogenous in cells
Nature of the assay: Kinobeads competition binding: PIM3. To be noted: target PIM3. The source says:
Supplement 41589_2023_1459_MOESM4_ESM.xlsx, sheet "CATDS matrix" | column: PIM3

Our source for the CATDS and potency estimated from few doses values is PMC11062922 (Nature Chemical Biology, 2023).

T3 sequence (P42684 whole entry): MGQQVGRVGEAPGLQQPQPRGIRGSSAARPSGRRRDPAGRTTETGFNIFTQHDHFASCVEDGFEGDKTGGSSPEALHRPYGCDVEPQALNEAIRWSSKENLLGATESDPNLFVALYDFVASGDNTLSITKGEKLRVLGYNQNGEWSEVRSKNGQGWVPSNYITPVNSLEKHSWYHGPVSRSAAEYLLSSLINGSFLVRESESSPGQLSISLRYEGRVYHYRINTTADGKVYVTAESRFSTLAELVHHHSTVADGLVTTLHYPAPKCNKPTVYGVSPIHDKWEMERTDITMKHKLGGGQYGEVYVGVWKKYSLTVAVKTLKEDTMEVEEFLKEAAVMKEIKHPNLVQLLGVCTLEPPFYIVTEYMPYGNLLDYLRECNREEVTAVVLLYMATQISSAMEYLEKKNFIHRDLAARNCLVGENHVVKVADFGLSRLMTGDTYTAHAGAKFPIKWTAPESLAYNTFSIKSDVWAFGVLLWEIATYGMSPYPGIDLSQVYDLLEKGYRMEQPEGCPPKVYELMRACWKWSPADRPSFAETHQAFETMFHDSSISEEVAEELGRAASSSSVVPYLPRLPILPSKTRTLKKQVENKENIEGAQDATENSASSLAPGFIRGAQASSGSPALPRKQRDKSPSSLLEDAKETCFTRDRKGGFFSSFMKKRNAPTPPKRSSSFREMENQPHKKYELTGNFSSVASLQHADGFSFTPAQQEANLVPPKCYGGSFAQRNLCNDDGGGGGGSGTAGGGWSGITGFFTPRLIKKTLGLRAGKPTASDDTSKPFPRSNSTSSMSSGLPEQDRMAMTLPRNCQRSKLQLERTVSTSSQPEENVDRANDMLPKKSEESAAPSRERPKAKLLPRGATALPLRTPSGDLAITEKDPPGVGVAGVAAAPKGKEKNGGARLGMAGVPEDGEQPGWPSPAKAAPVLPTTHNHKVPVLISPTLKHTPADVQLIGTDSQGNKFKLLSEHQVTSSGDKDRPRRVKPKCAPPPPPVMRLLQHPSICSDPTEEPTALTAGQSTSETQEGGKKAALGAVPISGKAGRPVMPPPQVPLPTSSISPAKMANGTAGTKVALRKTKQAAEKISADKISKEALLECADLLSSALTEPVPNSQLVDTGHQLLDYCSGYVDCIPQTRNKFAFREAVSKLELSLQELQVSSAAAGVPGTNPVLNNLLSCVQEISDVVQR
T7 sequence (Q76MJ5 35-926): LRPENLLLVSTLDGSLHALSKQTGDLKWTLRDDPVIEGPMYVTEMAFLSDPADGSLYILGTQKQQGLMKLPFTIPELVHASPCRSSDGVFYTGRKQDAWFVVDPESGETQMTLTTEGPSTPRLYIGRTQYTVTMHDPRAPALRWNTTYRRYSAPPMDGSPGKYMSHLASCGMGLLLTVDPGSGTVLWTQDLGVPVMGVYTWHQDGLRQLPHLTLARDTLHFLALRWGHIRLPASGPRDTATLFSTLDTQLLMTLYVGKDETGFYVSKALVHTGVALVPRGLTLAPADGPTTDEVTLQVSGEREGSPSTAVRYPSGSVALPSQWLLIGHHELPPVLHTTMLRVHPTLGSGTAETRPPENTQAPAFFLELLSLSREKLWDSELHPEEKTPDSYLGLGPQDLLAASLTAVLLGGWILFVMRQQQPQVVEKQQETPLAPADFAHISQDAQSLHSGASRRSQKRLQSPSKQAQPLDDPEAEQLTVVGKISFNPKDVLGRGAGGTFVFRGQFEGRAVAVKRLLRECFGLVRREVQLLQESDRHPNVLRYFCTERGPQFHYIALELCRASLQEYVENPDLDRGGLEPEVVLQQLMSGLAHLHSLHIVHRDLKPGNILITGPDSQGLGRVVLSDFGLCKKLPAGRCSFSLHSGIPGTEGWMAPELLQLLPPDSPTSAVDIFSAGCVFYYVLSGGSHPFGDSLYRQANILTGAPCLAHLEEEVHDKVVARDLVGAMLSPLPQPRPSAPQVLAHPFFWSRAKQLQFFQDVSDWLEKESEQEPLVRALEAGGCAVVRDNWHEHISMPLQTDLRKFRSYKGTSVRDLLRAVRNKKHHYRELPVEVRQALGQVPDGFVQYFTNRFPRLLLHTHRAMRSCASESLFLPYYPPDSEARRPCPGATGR
T2 sequence (P00533 25-1210): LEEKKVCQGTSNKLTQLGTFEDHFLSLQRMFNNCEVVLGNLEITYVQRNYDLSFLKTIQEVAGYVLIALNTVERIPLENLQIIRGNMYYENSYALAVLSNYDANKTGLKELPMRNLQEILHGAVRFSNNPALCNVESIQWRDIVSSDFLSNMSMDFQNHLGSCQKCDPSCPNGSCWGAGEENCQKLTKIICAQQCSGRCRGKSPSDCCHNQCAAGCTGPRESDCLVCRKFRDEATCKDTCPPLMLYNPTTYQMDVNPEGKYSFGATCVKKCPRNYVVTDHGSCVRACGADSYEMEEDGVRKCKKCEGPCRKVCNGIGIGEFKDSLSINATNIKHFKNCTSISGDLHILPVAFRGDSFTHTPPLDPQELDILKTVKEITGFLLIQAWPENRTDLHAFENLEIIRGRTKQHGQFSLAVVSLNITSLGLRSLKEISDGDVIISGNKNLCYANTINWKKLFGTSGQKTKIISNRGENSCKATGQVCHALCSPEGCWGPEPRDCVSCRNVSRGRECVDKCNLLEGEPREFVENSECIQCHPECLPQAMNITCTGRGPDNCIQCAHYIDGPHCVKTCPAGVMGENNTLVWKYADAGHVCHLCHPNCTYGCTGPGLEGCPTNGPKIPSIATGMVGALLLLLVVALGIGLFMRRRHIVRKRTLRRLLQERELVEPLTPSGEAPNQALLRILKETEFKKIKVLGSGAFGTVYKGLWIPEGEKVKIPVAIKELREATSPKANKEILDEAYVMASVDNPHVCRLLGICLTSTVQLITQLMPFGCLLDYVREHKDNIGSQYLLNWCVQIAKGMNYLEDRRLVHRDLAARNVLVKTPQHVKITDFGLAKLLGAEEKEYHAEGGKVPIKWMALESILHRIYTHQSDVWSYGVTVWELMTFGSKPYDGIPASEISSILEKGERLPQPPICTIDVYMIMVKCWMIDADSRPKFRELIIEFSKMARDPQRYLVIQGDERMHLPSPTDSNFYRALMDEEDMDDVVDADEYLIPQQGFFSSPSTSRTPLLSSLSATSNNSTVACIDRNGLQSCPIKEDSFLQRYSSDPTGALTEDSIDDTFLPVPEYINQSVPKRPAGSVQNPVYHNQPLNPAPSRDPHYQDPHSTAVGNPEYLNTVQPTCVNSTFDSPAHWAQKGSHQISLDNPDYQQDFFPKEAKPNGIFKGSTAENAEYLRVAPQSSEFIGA

For the compound `Nc1ncnc2[nH]c(-c3ccccc3)nc12` [AH5015_KCGS], the CATDS on MET was 0; on EGFR it was 0; on ABL2, 0; on AURKA it was 0; at BCR it was 0.0268; with COX5A, 0. Moreover, the CATDS at EPHA2, on ERN2, in the assay on FN3KRP, in the assay with ILK, in the assay with MAP2K2 and with MAP4K5 was 0 each time. For the same compound, the CATDS in the assay with MAPK7, in the assay on NEK9, in the assay on NNT, at PAK4, on PDXK and at PIM3 was 0 each time.
As for `CCc1cc2c(cc1N1CCC(N3CCOCC3)CC1)C(C)(C)c1[nH]c3cc(C#N)ccc3c1C2=O` [Alectinib], the CATDS on MET, on EGFR, at ABL2, at AURKA, at BCR and with COX5A was 0 each time. In addition, the CATDS on EPHA2, at ERN2, in the assay with FN3KRP, in the assay with ILK, with MAP2K2 and in the assay on MAP4K5 was 0 each time. Further, the CATDS with MAPK7, in the assay with NEK9, with NNT, at PAK4, at PDXK and at PIM3 was 0 in each case.
Consider `N#CC1(c2ccc(NC(=O)c3cccnc3NCc3ccncc3)cc2)CCCC1` [Apatinib], for which the CATDS at MET, on EGFR, at ABL2, at AURKA, on BCR and with COX5A was 0 in each case. Further, the CATDS at EPHA2, at ERN2, with FN3KRP, in the assay on ILK, with MAP2K2 and in the assay with MAP4K5 was 0 throughout. Also, the CATDS with MAPK7, in the assay on NEK9, in the assay with NNT, on PAK4, on PDXK and on PIM3 was 0 each time.
As for `CCN1CCN(Cc2ccc(Nc3ncc(F)c(-c4cc(F)c5nc(C)n(C(C)C)c5c4)n3)nc2)CC1` [Abemaciclib], the CATDS on MET, on EGFR, at ABL2, on AURKA, on BCR and with COX5A was 0 each time. For the same compound, the CATDS at EPHA2, at ERN2, in the assay on FN3KRP, with ILK, in the assay on MAP2K2 and in the assay on MAP4K5 was 0 each time. The CATDS with MAPK7, in the assay on NEK9, in the assay with NNT, on PAK4, on PDXK and at PIM3 was 0 in each case.
In the case of `C#Cc1cccc(Nc2ncnc3cc(OC)c(OC4CCN(C)CC4)cc23)c1` [BI00007366], at EGFR (Kinobeads two-dose, Drugmatrix - all 2, read-out: apparent Kd EGFR), the potency estimated from few doses was over 1000 nM.
Regarding `CN(C)C/C=C/C(=O)Nc1cc2c(Nc3ccc(F)c(Cl)c3)ncnc2cc1O[C@H]1CCOC1` [Afatinib], the CATDS on MET, at AURKA, on BCR, in the assay on COX5A, on EPHA2 and with FN3KRP was 0 in each case. For the same compound, the CATDS in the assay on NNT, at PAK4, on PDXK and on PIM3 was 0 in each case.
